Reference: patent US8895502B2, “β2-glycoprotein I peptide inhibitors” (Kansas State University Research Foundation, priority 2010, dated 2014)
“Also recorded” adds a separate entry of the source. Ends that are not written are not given here.

What was measured:
CD31 [1] = assay: Spontaneous breast cancer model, CD31 RNA expression; format: in vivo, mouse; conditions: mammary tumors, compared to saline treated animals
Protocol: (§1) mRNA was isolated from the tumor samples that were homogenized in Trizol. The concentration of mRNA was evaluated by nanodrop and the purity by bioanalyzer. cDNA was then synthesized using random primers with the Quanta cDNA synthesis kit. RT-PCR was then performed on a 1:100 dilution of cDNA for 18s rRNA. After 3 min denaturing at 95° C., the real-time PCR reaction consisted of 50 cycles (of 10 sec at 95° C., 20 sec at 58° C., and 10 sec at 72° C.), followed by a melt curve increasing at intervals of 0.5° C. from 60° C. to 95° C. RT-PCR was also performed on cDNA samples for CD31 and VEGF which are endothelial markers of angiogenesis. After subtracting 18s Ct values, peptide treated dCt values were normalized to saline treated samples and fold change calculated as ddCt. Primers were obtained from Integrated DNA Technology (Coraville, Iowa) and sequences are in the table below.

CD31 [2] = assay: B16-F10 melanoma model, CD31 expression in tumors; format: in vivo, mouse
Protocol: as §1, with “kit. Real-time PCR” for “kit. RT-PCR”, “0.5°” for “0.5° C.”, “and endoglin” for “and VEGF”, “angiogenesis. Fold change of each gene was determined by” for “angiogenesis. After”, “18s for normalization of RNA” for “18s Ct values, peptide treated dCt values were normalized to saline treated samples”, “change was determined by comparing to original cells which were set to 1.” for “change calculated as ddCt.”
OCT cryopreserved tumor sections were cut and stained similar to intestinal sections in Example 1. CD31 and Pan-endothelial expression was detected by FITC conjugated rat anti-mouse CD31 or pan-endothelial antibodies (Biolegend, San Diego, Calif.). Each experiment contained serial sections stained with the appropriate isotype control antibodies. All slides were mounted with ProLong Gold (Invitrogen) and images were obtained and analyzed as described in Example 1.

VEGF = assay: Spontaneous breast cancer model, VEGF RNA expression; format: in vivo, mouse; conditions: mammary tumors, compared to saline treated animals
Protocol: as §1

B16-F10 mouse melanoma = assay: B16-F10 melanoma model, tumor growth and vascularization; format: in vivo
Protocol: The mouse melanoma cell line, B16-F10 (ATCC CRL-6475), was cultured in DMEM supplemented with 10% fetal bovine serum at 8% CO2 until confluent. C57Bl/6 mice were injected subcutaneously with 2×10^6 cells mixed 1:1 in matrigel (BD Biosciences) and tumor growth was evaluated daily for up to 10 days using calipers. Some mice received 40 μM peptide daily for the first 4 days and then every other day until termination of the study. Control mice received N. saline. At the end of the study, the tumors were dissected and tumor volume determined by saline displacement. Photomicrographs (10×) of representative B16-F10 tumors extracted from C57Bl/6 wildtype mice were taken with a Nikon CoolSnap CF camera and an Olympus SZ61 microscope.
The study was repeated using additional C57Bl/6 mice, which were injected subcutaneously with 2×10^6 cells mixed with matrigel (above) 6-10 days before tumor excision. Peptide treated mice received 40 μM peptide 296Cys-Ser on days 1, 2, 3, 4, 6, and 8 after injection (n=2-5 animals/group) or days 3, 5, 7, 9 or only on days 4, 6, and 8. At the end of the study, the tumors were excised, measured, and volume was determined by aqueous displacement. Tumors were cut in half longitudinally with one half homogenized in Trizol for RNA and the other placed in OCT for histological analysis. Both halves were snap frozen and stored at −80° C. until used.

endoglin = assay: B16-F10 melanoma model, endoglin expression in tumors; format: in vivo, mouse; conditions: peptide treatment on days 1-4, 6, and 8, qRT-PCR
Protocol: as §1, with “kit. Real-time PCR” for “kit. RT-PCR”, “0.5°” for “0.5° C.”, “and endoglin” for “and VEGF”, “angiogenesis. Fold change of each gene was determined by” for “angiogenesis. After”, “18s for normalization of RNA” for “18s Ct values, peptide treated dCt values were normalized to saline treated samples”, “change was determined by comparing to original cells which were set to 1.” for “change calculated as ddCt.”

C57Bl/6 mice = assay: Hemorrhage-induced intestinal damage and inflammation; format: in vivo, mouse; conditions: 40 uM peptide after blood loss, 2 hours post-hemorrhage
Protocol: After a 1-week acclimatization period, mice were anesthetized using […]. Mice undergoing hemorrhage were subjected to retro-orbital removal of 30% of the calculated blood volume (approximately 0.5 mL) over a 90-second period (Fleming, S. D. et al., J. Surg. Res. 150:196-203 (2008); Hylton, D. J. et al., Shock 34:467-474 (2010); Hylton, D. J. et al., Shock 35: 134-140 (2011)). Volume of blood to be removed was based on animal weight and ranged from […] (body weight in grams×0.025). The determined blood volume was measured in water and marked on both the collection tubes and the capillary tubing used for retro-orbital punctures. This ensured that the correct amount would be withdrawn. A single retro-orbital puncture was sufficient for blood collection. The 2 hour mortality rate was less than 1%. Sham mice were subjected to similar procedures with no blood removal. Mice were randomly assigned to receive 40 uM peptide (80 ng/mouse) in a volume of 80-150 μL, or an equal volume of normal saline. To prevent spontaneous complement activation, all studies were performed in the absence of heparin. At 2 hours post-hemorrhage, mice were euthanized and tissues collected for analysis. Intestinal tissues were formalin fixed for analysis of injury and frozen sections were obtained for immunohistochemistry. […]

## H-IHFYSKNKEKKSSYTVEAHSRDGTI-OH [peptide 296Cys-Ser]
CD31 [1]
  RNA expression of CD31: significantly decreased
CD31 [2]; immunohistochemistry of tumors
  protein expression of both endothelial markers: decreased
CD31 [2]; peptide treatment on days 1-4, 6, and 8, qRT-PCR
  CD31 RNA expression within the tumors: attenuated
VEGF
  RNA expression of VEGF: significantly decreased
B16-F10 mouse melanoma; 2 mice injected with melanoma cells and peptide
  tumor vascularization (appearance): neither tumor appear vascularized
B16-F10 mouse melanoma; 2 mice injected with melanoma cells and peptide, day 8
  tumor volume, normal saline displaced: 0 to 0.1 mL
B16-F10 mouse melanoma; early treatment (days 1-4, 6, 8)
  animals in which the tumor was either not present or had significantly diminished from the day of injection: 3 of 7
B16-F10 mouse melanoma; mouse, in vivo
  angiogenesis in the B16F10 melanoma model: attenuates angiogenesis
B16-F10 mouse melanoma; repeat study, compared to untreated mice
  tumor growth and volume: significantly decreased
B16-F10 mouse melanoma; treatment on days 1-4, 6, and 8
  tumor growth: attenuated tumor growth; also recorded: prevented growth
B16-F10 mouse melanoma; treatment on days 3, 5, 7, and 9
  tumor growth: attenuated tumor growth
endoglin
  endoglin RNA expression within the tumors: attenuated
C57Bl/6 mice
  hemorrhage-induced inflammation (PGE2 and IL-6 production): significantly lower; also recorded: inhibit
  hemorrhage-induced intestinal damage: significantly lower; also recorded: inhibit
